Results from US6953786B2, “Compositions comprising plant-derived polyphenolic compounds and inhibitors of reactive oxygen species and methods of using thereof” (The Regents of the University of California, priority 2002, dated 2005).
Marks after values point to notes of the source that are not given here.

Columns and labels:
[1] = system: PARP; test: PARP proteolysis (Western blot); format: cell-based, rat; details: BSp73AS, 6 hours, 100 μM
Experimental: (§1) BSp73AS cells were cultured for 6 hours and Mia PACA-2 cells were cultured for 24 hours in the presence or absence of 100 μM of each rutin, quercetin or trans-resveratrol and with or without 50 μM of each […]. The cells were washed twice with PBS and lysed by incubating for 20 minutes at 4° C. in lysis buffer comprising 0.15 M NaCl, 50 mM Tris (pH 7.2), 1% deoxycholic acid (wt/vol), 1% Triton X-100 (wt/vol), 0.1% […] (wt/vol) and 1 mM PMSF, as well as 5 μg/ml each of protease inhibitors, pepstatin, leupeptin, chymostatin, antipain, and aprotinin. Then the cell lysates were centrifuged for 20 minutes at 15,000 g at 4° C. The supernatants were separated by 4-20% SDS-PAGE for 2 hours at 120 V using precast Tris-glycine gels and a Mini-Cell gel apparatus (Novex, San Diego, Calif.). Separated proteins were electrophoretically transferred to a nitrocellulose membrane for 2 hours at 30 V using a Novex Blot Module (Novex, San Diego, Calif.). Nonspecific binding was blocked by 1 hour incubation of nitrocellulose membranes in 5% (wt/vol) nonfat dry milk in Tris-buffered saline (TBS; pH 7.5). Blots were then incubated overnight at 4° C. with rabbit polyclonal antibody against poly (ADP-ribose) polymerase (PARP) (Santa Cruz Biotechnology, Santa Cruz, Calif.) (1;3,000) in an antibody buffer comprising (1% (wt/vol) non-fat dry milk in TTBS (0.05% vol/vol) Tween-20 in TBS), washed 3 times with TTBS and finally incubated for 1 hour with a peroxidase-labeled secondary antibody in the antibody buffer. Blots were developed for visualization using ECL detection kit. To test for equal protein loading, the blots were stripped and re-probed with an antibody against tubulin. When processing of a protein was measured, a decrease in unprocessed full-length form was measured concomitantly with the increase in the cleaved, active form. The experiment was repeated 3 times with similar results.

[2] = system: PARP; test: PARP proteolysis (Western blot); format: cell-based, human; details: Mia PACA-2, 24 hours, 100 μM
Experimental: as §1

[3] = system: caspase-3; test: Caspase-3 activity, fluorogenic assay with DEVD-AMC; format: cell-based, rat; details: BSp73AS, up to 6 hours, 100 μM, no serum (FIGS. 6B, 6C)
Experimental: To determine whether a polyphenolic compound activates caspase-3 activity in a time-dependent manner, the following assay was conducted. BSp73AS cells were cultured for 0, 1, 3, and 6 hours and Mia PACA-2 cells were cultured in the absence of serum or growth factors for 0, 1, 4, 6, and 24 hours in the presence of 100 μM or quercetin, trans-resveratrol, rutin, or control. Caspase-3 activity was measured in cell lysates with a fluorogenic assay using DEVD-AMC as a substrate. The results were normalized to the DEVDase activity in untreated cells.
To determine whether quercetin activates caspase-3 activity in a dose-dependent manner, the following assay was conducted. Cells were cultured for 6 hours in the absence of serum or growth factors in the presence of 0, 10, 20, 50, and 100 μM of quercetin. Caspase-3 activity was measured in cell lysates with a fluorogenic assay using DEVD-AMC as a substrate. The results were normalized to the DEVDase activity in untreated cells.

[4] = system: caspase-3; test: Caspase-3 (DEVDase) activity, fluorogenic assay with DEVD-AMC; format: cell-based, human; details: Mia PACA-2, up to 24 hours, 100 μM, no serum (FIG. 7B)
Experimental: To determine the role of caspases in the effects of combinations of agents on apoptosis, the effects of caspase-3 activity (DEVDase activity) as well as the effect of the broad spectrum caspase inhibitor, Z-VAD, on apoptosis was measured. Specifically, Mia PACA-2 cells were cultured for 72 hours in the presence of serum with or without 100 μM Z-VAD, 15 μM DPI, 100 μM trans-resveratrol, 100 μM genistein, a combination of trans-resveratrol and DPI, and a combination of genistein and DPI. DEVDase activity was measured in whole cell lysates with a fluorimetric assay.
A fluorimetric assay for caspase-3 activity was conducted. […] Cytosolic protein extracts (supernatants) were collected, protein concentrations were determined and the extracts were aliquoted and stored at −80° C. […] The reaction was started by addition of caspase-3 substrate, the readings were taken at 0, 60, 90, and 120 minutes. Fluorescence was calibrated using a standard curve for AMC. The data were expressed as mol AMC/mg protein/min.
Mia PACA-2 cells were cultured in the absence of serum or growth factors for 24 hours in the presence or absence of quercetin (100 μM), trans-resveratrol (100 μM), Z-VAD FMK (50 μM), cyclosporin A (5 μM) and/or aristolochic acid (50 μM). […] The reaction was started by addition of caspase-3 substrate, the readings were taken at 0, 60, 90, and 120 minutes. Fluorescence was calibrated using a standard curve for AMC. […] The data were expressed as mol AMC/mg protein/min. […]

[5] = system: cytochrome c; test: Mitochondrial cytochrome c release (Western blot); format: cell-based, rat; details: BSp73AS, 6 hours, 100 μM
Experimental: In order to determine the effects polyphenolic compounds have on mitochondrial cytochrome c release and apoptosis, the following assay was conducted. BSp73AS cells were cultured for 6 hours and Mia PACA-2 cells were cultured in the absence of serum or growth factors for 24 hours in the absence or presence of 100 μM of each rutin, trans-resveratrol, genistein, or quercetin. Cells were washed twice with ice-cold PBS, pH 7.2 and resuspended in extraction buffer, about 500 μl, comprising 20 mM HEPES-KOH (pH 7.0), 10 mM KCl, 1 mM […], 2 mM MgCl2, 1 mM EDTA, 1 mM DTT, 250 mM sucrose, 1 mM PMSF and protease inhibitors cocktail as provided above. The lysate was incubated for 30 minutes on ice and then homogenized using a glass dounce (80 strokes). Nuclei were removed by centrifugation at 1,000 g for 10 minutes at 4° C. Supernatant was additionally centrifuged for 1 hour at 100,000 g and the resulting supernatant (cytosolic fraction) and pellet (mitochondrial fraction) were collected separately, subjected to SDS-PAGE, and Western blotting using an antibody against cytochrome c. The experiment was repeated twice with similar results.

[6] = system: Mia PACA-2; test: Pancreatic cancer growth assay in nude mouse model; format: in vivo
Experimental: To determine the effect of a polyphenolic compound on pancreatic cancer cell growth, the following assay using a nude mouse model was conducted. Specifically, the effect of quercetin was tested in a nude mouse model of pancreatic cancer using the highly malignant pancreatic cancer cell line, Mia PACA-2.
Tumor induction in nude mice was performed as described by Hotz HC, et al. (2001) Pancreas 22:113-121, which is herein incorporated by reference. For subcutaneous tumor formation, 1×10^7 Mia PACA-2 tumor cells were subcutaneously injected in the medio-dorsal region of a nude mouse. After 4 weeks a small tumor fragment, about 1 mm in diameter, was removed from the subcutaneous tumor and transplanted into the pancreatic tail of mice of two study groups. Ten days after tumor transplantation, treatment with or without quercetin was initiated. The treated animals received daily intraperitoneal injections of 1.3 mg quercetin dissolved in DMSO; the control group received DMSO only by intraperitoneal injection. The animals were sacrificed once clinical tumor signs including severe cachexia ascites with abdominal distension or heavy tumor burden, larger than 1.5 cm, became apparent. Tumor volume was calculated as described by Hotz H C, et al. (2001) as 0.5×length×width×depth. Metastatic tumor spread was determined macroscopically at autopsy in all thoracic, abdominal, retroperitoneal and pelvic organs. All macroscopic suspicious lesions were further confirmed as tumor dissemination by microscopic analysis. Each value in the metastatic score represented a different organ of metastatic tumor spread.

[7] = nude mice with Mia PACA-2 tumor in pancreatic tail, daily i.p. 1.3 mg quercetin, means ± SE, n=8

Row | Compound | PARP cleavage [1] | PARP cleavage [2] | caspase-3 activation [3] | caspase-3 activation [4] | cytosolic and mitochondrial cytochrome c [5] | growth of pancreatic cancer in a nude mouse model [6] | Number of metastatic sites (organs with metastatic lesions) [6, 7] | Tumor volume, cm^3 [6, 7] | Number of metastatic sites (organs with metastatic lesions) ([6]; nude mice with Mia PACA-2 tumor in pancreatic tail, daily i.p. 1.3 mg quercetin, means ± SE, n=8, listed as Quercetin) | Survival ([6]; nude mice with Mia PACA-2 tumor transplanted into pancreatic tail, daily intraperitoneal 1.3 mg quercetin in DMSO, means ± SE, n=8, days after transplantation until animal appeared ill from abdominal distension) [days]
1 | Oc1ccc(/C=C/c2cc(O)cc(O)c2)cc1 [trans-resveratrol] | cleaved to its activated form | cleaved to its activated form | caused caspase-3 activation | caused caspase-3 activation | caused increases in cytosolic cytochrome c and decreases in mitochondrial cytochrome c | – | – | – | – | –
2 | O=c1c(-c2ccc(O)cc2)coc2cc(O)cc(O)c12 [genistein] | – | – | – | – | caused increases in cytosolic cytochrome c and decreases in mitochondrial cytochrome c | inhibition of growth | – | – | – | –
3 | O=c1c(O)c(-c2ccc(O)c(O)c2)oc2cc(O)cc(O)c12 [quercetin] | cleaved to its activated form | cleaved to its activated form | caused caspase-3 activation | caused caspase-3 activation | caused increases in cytosolic cytochrome c and decreases in mitochondrial cytochrome c | inhibition of growth | 0.6 | 1.56 ± 0.27* cm^3 | 0.62 ± 0.26 | 75.00 ± 2.50
